For one assay, the target named is T1, MycN protein (Homo sapiens, UniProt P04198).
T1 construct: either 2×10^6 of L-363 (human leukemia cell line) or SKNBE2 (neuroblastoma cell line) cells; endogenous in cells; host or cells: SKNBE2 / SK-N-BE(2) neuroblastoma cells
T1 sequence (P04198 1-464): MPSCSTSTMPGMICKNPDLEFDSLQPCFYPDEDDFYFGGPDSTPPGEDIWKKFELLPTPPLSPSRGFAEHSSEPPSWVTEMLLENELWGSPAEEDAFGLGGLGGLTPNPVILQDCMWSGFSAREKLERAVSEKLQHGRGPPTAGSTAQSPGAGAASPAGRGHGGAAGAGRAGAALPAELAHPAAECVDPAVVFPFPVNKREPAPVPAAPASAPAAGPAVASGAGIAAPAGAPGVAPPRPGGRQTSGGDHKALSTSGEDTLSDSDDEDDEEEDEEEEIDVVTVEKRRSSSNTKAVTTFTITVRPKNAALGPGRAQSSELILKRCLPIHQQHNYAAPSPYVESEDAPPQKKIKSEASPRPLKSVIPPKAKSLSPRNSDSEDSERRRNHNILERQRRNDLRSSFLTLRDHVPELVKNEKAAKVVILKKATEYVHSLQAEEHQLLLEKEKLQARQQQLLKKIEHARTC
In words: Degradation of MycN protein, Western blot, SKNBE2 cells (Example 160). Type of assay: cell-based. In a few lines: (§1)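 L-363 or SKNBE2 cells (passage <40, mostly <30) at 1×10^6 cells/mL in RPMI 1640/10% FBS were exposed 6 h to compound added from a 1 mM stock. RIPA lysates (25–30 ug protein) were analysed by SDS-PAGE and immunoblot with 1:500 primary antibody, with protein level quantified by band densitometry.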

The target in a further assay is T2, MycC protein (Homo sapiens, UniProt P01106).
T2 construct: either 2×10^6 of L-363 (human leukemia cell line) or SKNBE2 (neuroblastoma cell line) cells; endogenous in cells; host or cells: L-363 / L363 human leukemia cells
Description: Degradation of MycC protein, Western blot, L-363 cells (Example 160). Format: cell-based. Conditions: 6 h. In a few lines: as §1

The values that follow come from patent publication US20230322722A1, “MODULATORS OF MYC FAMILY PROTO-ONCOGENE PROTEIN” (Nalo Therapeutics, priority 2020, published 2023).

T2 sequence (P01106 whole entry): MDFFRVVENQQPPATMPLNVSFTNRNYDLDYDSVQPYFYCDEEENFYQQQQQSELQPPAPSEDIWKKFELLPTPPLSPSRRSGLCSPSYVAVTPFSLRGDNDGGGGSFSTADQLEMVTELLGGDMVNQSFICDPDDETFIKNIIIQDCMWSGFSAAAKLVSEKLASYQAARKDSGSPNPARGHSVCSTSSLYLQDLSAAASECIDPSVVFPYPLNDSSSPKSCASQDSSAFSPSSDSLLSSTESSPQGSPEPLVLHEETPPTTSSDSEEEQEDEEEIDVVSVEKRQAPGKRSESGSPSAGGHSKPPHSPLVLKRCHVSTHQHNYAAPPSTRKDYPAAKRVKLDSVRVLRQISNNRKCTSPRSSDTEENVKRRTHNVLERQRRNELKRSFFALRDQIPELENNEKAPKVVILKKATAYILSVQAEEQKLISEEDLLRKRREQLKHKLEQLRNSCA

As for `CN(c1nccc(Nc2cc(C3CC3)[nH]n2)n1)C1CCC(CC(=O)NC2Cc3ccccc3C2)CC1` (stereo not drawn) [Compound 121, 2-(4-((4-((5-cyclopropyl-1H-pyrazol-3-yl)amino)pyrimidin-2-yl)(methyl)amino)cyclohexyl)-N-(2,3-dihydro-1H-inden-2-yl)acetamide], the inhibition at 2 µM at MycN protein (6 h) and against MycC protein was 80 to 100% each time.
`CN(c1cc(C2CC2)[nH]n1)c1ccnc(N(C)[C@H]2CC[C@H](NC(=O)c3nnn(C)n3)CC2)n1` [Compound 147, N-((1R,4R)-4-((4-((5-cyclopropyl-1H-pyrazol-3-yl)(methyl)amino)pyrimidin-2-yl)(methyl)amino)cyclohexyl)-2-methyl-2H-tetrazole-5-carboxamide]: the inhibition at 2 µM at MycN protein (SKNBE2, 6 h) is less than 20%; against MycC protein, 20 to 49%.
Taken in the same sequence, the figures for `CN(c1cc(C2CCCC2)[nH]n1)c1ccnc(N(C)[C@H]2CC[C@H](NC(=O)c3cccc(S(C)(=O)=O)c3)CC2)n1` [Compound 148, N-((1R,4R)-4-((4-((5-cyclopentyl-1H-pyrazol-3-yl)(methyl)amino)pyrimidin-2-yl)(methyl)amino)cyclohexyl)-3-(methylsulfonyl)benzamide] were less than 20% and 20 to 49%.
Taken in the same sequence, the figures for `CN(c1nccc(Nc2cc(C3CC3)[nH]n2)n1)[C@H]1CC[C@H](NC(=O)Cc2ccnc(C#N)c2)CC1` [Compound 124, 2-(2-cyanopyridin-4-yl)-N-((1R,4R)-4-((4-((5-cyclopropyl-1H-pyrazol-3-yl)amino)pyrimidin-2-yl)(methyl)amino)cyclohexyl)acetamide] were 50 to 79% and 80 to 100%.
In the case of `CN(c1nccc(Nc2cc(C3CC3)[nH]n2)n1)[C@H]1CC[C@H](NC(=O)Cc2cccc(S(C)(=O)=O)c2)CC1` [Compound 115, N-((1R,4R)-4-((4-((5-cyclopropyl-1H-pyrazol-3-yl)amino)pyrimidin-2-yl)(methyl)amino)cyclohexyl)-2-(3-(methylsulfonyl)phenyl)acetamide], the inhibition at 2 µM on MycN protein (SKNBE2, 6 h) is less than 20%; on MycC protein it was 50 to 79%.
For `CN(c1cc(C2CCCC2)[nH]n1)c1ccnc(N(C)[C@H]2CC[C@H](NC(=O)C3Cc4ccccc4C3)CC2)n1` [Compound 143, N-((1R,4R)-4-((4-((5-cyclopentyl-1H-pyrazol-3-yl)(methyl)amino)pyrimidin-2-yl)(methyl)amino)cyclohexyl)-2,3-dihydro-1H-indene-2-carboxamide], in that order: less than 20% and less than 20%.
Turning to `CN(c1nccc(Nc2cc(C3CC3)[nH]n2)n1)[C@H]1CC[C@H](NC(=O)C2CCCC(C(F)(F)F)C2)CC1` (stereo partly drawn) [113 F1], on MycN protein, the “% Degradation of MycN (SKNBE2) 6 h, 2 μM” value is “* (degradation <20%)”. On MycC protein, the inhibition at 2 µM lay within 50 to 79%.
For the compound `CN(c1nccc(Nc2cc(C3CC3)[nH]n2)n1)C1CCN(CC(=O)Nc2cccc(S(C)(=O)=O)c2)CC1` [Compound 3, 2-(4-((4-((5-cyclopropyl-1H-pyrazol-3-yl)amino)pyrimidin-2-yl)(methyl)amino)piperidin-1-yl)-N-(3-(methylsulfonyl)phenyl)acetamide], the inhibition at 2 µM at MycN protein (SKNBE2, 6 h) lay within 50 to 79%; against MycC protein, 80 to 100%.
Taken in the same sequence, the figures for `CN(c1nccc(Nc2cc(C3CC3)[nH]n2)n1)[C@H]1CC[C@H](NC(=O)N2CCn3nc(C(F)(F)F)nc3C2)CC1` [Compound 14, N-((1R,4R)-4-((4-((5-cyclopropyl-1H-pyrazol-3-yl)amino)pyrimidin-2-yl)(methyl)amino)cyclohexyl)-2-(trifluoromethyl)-5,6-dihydro-[1,2,4]triazolo[1,5-a]pyrazine-7(8H)-carboxamide] were 80 to 100% and 80 to 100%.
`CN(c1nccc(Nc2cc(C3CC3)[nH]n2)n1)C1CCN(CC(=O)Nc2cn(C)nn2)CC1` [Compound 8, 2-(4-((4-((5-cyclopropyl-1H-pyrazol-3-yl)amino)pyrimidin-2-yl)(methyl)amino)piperidin-1-yl)-N-(1-methyl-1H-1,2,3-triazol-4-yl)acetamide]: the inhibition at 2 µM was 50 to 79% on MycN protein (SKNBE2, 6 h) and 80 to 100% against MycC protein.
In the case of `Cn1nnc(CNC(=O)[C@H]2CC[C@H](N(C)c3nccc(Nc4cc(C5CC5)[nH]n4)n3)CC2)n1` [Compound 144, (1R,4R)-4-((4-((5-cyclopropyl-1H-pyrazol-3-yl)amino)pyrimidin-2-yl)(methyl)amino)-N-((2-methyl-2H-tetrazol-5-yl)methyl)cyclohexane-1-carboxamide], the inhibition at 2 µM against MycN protein (SKNBE2, 6 h) fell in the range of 80 to 100%; against MycC protein it was 80 to 100%.
Regarding `CN(c1nccc(Nc2cc(C3CC3)[nH]n2)n1)[C@H]1CC[C@H](NC(=O)c2ccc(C#N)cn2)CC1` [Compound 137, 5-cyano-N-((1R,4R)-4-((4-((5-cyclopropyl-1H-pyrazol-3-yl)amino)pyrimidin-2-yl)(methyl)amino)cyclohexyl)picolinamide], the inhibition at 2 µM is less than 20% at MycN protein (SKNBE2, 6 h) and 20 to 49% against MycC protein.
Taken in the same sequence, the figures for `CN(c1nccc(Nc2cc(C3CC3)[nH]n2)n1)[C@H]1CC[C@H](NS(=O)(=O)Cc2cccc(C#N)c2)CC1` [Compound 158, 1-(3-cyanophenyl)-N-((1R,4R)-4-((4-((5-cyclopropyl-1H-pyrazol-3-yl)amino)pyrimidin-2-yl)(methyl)amino)cyclohexyl)methanesulfonamide] were 50 to 79% and 80 to 100%.
Regarding `CN(c1nccc(Nc2cc(C3CC3)[nH]n2)n1)C1CCC(CC(=O)Nc2cn(C3COC3)cn2)CC1` [Compound 133, 2-((1R,4R)-4-((4-((5-cyclopropyl-1H-pyrazol-3-yl)amino)pyrimidin-2-yl)(methyl)amino)cyclohexyl)-N-(1-(oxetan-3-yl)-1H-imidazol-4-yl)acetamide], the inhibition at 2 µM at MycN protein (SKNBE2, 6 h) is 80 to 100%; at MycC protein, 80 to 100%.
As for `CN(c1nccc(Nc2cc(C3CC3)[nH]n2)n1)C1CCN(CC(=O)NC2Cc3ccc(C#N)cc3C2)CC1` (stereo not drawn) [Compound 2, N-(5-cyano-2,3-dihydro-1H-inden-2-yl)-2-(4-((4-((5-cyclopropyl-1H-pyrazol-3-yl)amino)pyrimidin-2-yl)(methyl)amino)piperidin-1-yl)acetamide], the inhibition at 2 µM against MycN protein (6 h) and against MycC protein was 80 to 100% each time.
`CN(c1nccc(Nc2cc(C3CC3)[nH]n2)n1)[C@H]1CC[C@H](NS(=O)(=O)Cc2cccc(C(F)(F)F)c2)CC1` [Compound 152, N-((1R,4R)-4-((4-((5-cyclopropyl-1H-pyrazol-3-yl)amino)pyrimidin-2-yl)(methyl)amino)cyclohexyl)-1-(3-(trifluoromethyl)phenyl)methanesulfonamide]: the inhibition at 2 µM at MycN protein (SKNBE2, 6 h) fell in the range of 80 to 100%; at MycC protein, 80 to 100%.
As for `Cn1nnc(C(=O)N[C@H]2CC[C@H](N(C)c3nccc(Nc4cc(C5CCCC5)[nH]n4)n3)CC2)n1` [Compound 145, N-((1R,4R)-4-((4-((5-cyclopentyl-1H-pyrazol-3-yl)amino)pyrimidin-2-yl)(methyl)amino)cyclohexyl)-2-methyl-2H-tetrazole-5-carboxamide], the inhibition at 2 µM was 50 to 79% against MycN protein (SKNBE2, 6 h) and 80 to 100% against MycC protein.
Taken in the same sequence, the figures for `CN(c1nccc(Nc2cc(C3CC3)[nH]n2)n1)[C@H]1CC[C@H](NC(=O)C2(C)CCOCC2)CC1` [Compound 116, N-((1R,4R)-4-((4-((5-cyclopropyl-1H-pyrazol-3-yl)amino)pyrimidin-2-yl)(methyl)amino)cyclohexyl)-4-methyltetrahydro-2H-pyran-4-carboxamide] were less than 20% and 80 to 100%.
Turning to `CN(c1nccc(Nc2cc(C3CC3)[nH]n2)n1)[C@H]1CC[C@H](NC(=O)N2CCc3cc(F)c(F)cc3C2)CC1` [Compound 13, N-((1R,4R)-4-((4-((5-cyclopropyl-1H-pyrazol-3-yl)amino)pyrimidin-2-yl)(methyl)amino)cyclohexyl)-6,7-difluoro-3,4-dihydroisoquinoline-2(1H)-carboxamide], the inhibition at 2 µM against MycN protein (SKNBE2, 6 h) is 50 to 79%; on MycC protein it was 80 to 100%.
Taken in the same sequence, the figures for `CN(c1nccc(Nc2cc(C3CC3)[nH]n2)n1)[C@H]1CC[C@H](NS(=O)(=O)c2cccc(S(C)(=O)=O)c2)CC1` [Compound 155, N-((1R,4R)-4-((4-((5-cyclopropyl-1H-pyrazol-3-yl)amino)pyrimidin-2-yl)(methyl)amino)cyclohexyl)-3-(methylsulfonyl)benzenesulfonamide] were 80 to 100% and 80 to 100%.
Take `CN(c1cc(C2CCCC2)[nH]n1)c1ccnc(N(C)C2CCC(CC(=O)NC3Cc4ccc(C#N)cc4C3)CC2)n1` (stereo not drawn) [Compound 138, N-(5-cyano-2,3-dihydro-1H-inden-2-yl)-2-(4-((4-((5-cyclopentyl-1H-pyrazol-3-yl)(methyl)amino)pyrimidin-2-yl)(methyl)amino)cyclohexyl)acetamide]: the inhibition at 2 µM on MycN protein (6 h) and on MycC protein was less than 20% throughout.
